Experimental data from patent US20160220689A1, “MACROMOLECULES OF DENDRIMER-PLATINUM CONJUGATES” (priority 2013, published 2016).

Experiments:
[1] = system: 2008 (ovarian); assay: Sulforhodamine B (SRB) cell growth inhibition assay; details: 72 hours, based on equivalent platinum loading, standard drugs on total molecular weight
Experimental: (§1) Cell growth inhibition was determined using the Sulforhodamine B (SRB) assay (Voigt W., “Sulforhodamine B assay and chemosensitivity” Methods Mol. Med., 2005, 110, 39-48) against various cancer cell lines after 72 hours.
(§2) All solutions were prepared in saline and were stored at −20° C. All values were based on equivalent platinum loading except standard drugs which were calculated on total molecular weight. The results are shown in Table 1 in the micromolar range.

[2] = system: FADU (head and neck); assay: as above; details: 72 hours, based on equivalent platinum loading, standard drugs on total molecular weight
Experimental: as §1, §2

[3] = system: LoVo (colon); assay: as above; details: 72 hours, based on equivalent platinum loading, standard drugs on total molecular weight
Experimental: as §1, §2

[4] = system: OE21 (head and neck); assay: as above; details: 72 hours, based on equivalent platinum loading, standard drugs on total molecular weight
Experimental: as §1, §2

[5] = system: SW620 (colon); assay: as above; details: 72 hours, based on equivalent platinum loading, standard drugs on total molecular weight
Experimental: as §1, §2

[6] = cited from earlier work
[7] = system: SW620 cells; assay: Xenograft model efficacy study; details: IV days 1, 8, 15, Oxaliplatin 5, Compound 1 8.5, Compound 5 9 mg/kg Pt equivalents
Experimental: Thirteen days later, 50 mice with similar sized tumors (˜110 mm^3) were randomized into 4 groups (n=12). All compounds were dissolved in 5% glucose at the concentration required to achieve administration of 0.1 mL/10 g body eight.

[8] = Maximum tolerated dosage in mice; details: intravenous, once weekly for three weeks (day 1, 8 and 15), female Balb/c mice
From the text: Mice were weighed daily and watched for signs of toxicity. Animals were monitored for up to 10 days following the final drug dose. Any mice exceeding ethical endpoints (>20% body weight loss, poor general health) were immediately sacrificed and observations were noted.

[9] = Toxicity study: blood cell counts in tumor-bearing mice; details: Oxaliplatin 5, Compound 1 8.5, Compound 5 9 mg/kg Pt equivalents IV days 1, 8, 15
Experimental: The mice were randomised into 4 groups of n=5 mice, (mean tumor volume ˜90 mm^3) On day one, animals were eye bled in the morning for baseline cell counts and then drug dosing commenced later that day. Drug dosing was performed on days 1, 8 and 15 at the previously determined maximum tolerated doses. All compounds were dissolved in 5% glucose at the concentration required to allow administration of 0.1 mL/10 g body weight. […] Subsequent eye bleeds were performed on days 7, 14 and 26 (Tables 4 A-D, in each case data represented as mean ratio of counts for each time point relative to that at the baseline).

Row | Compound | GI50 [1] | GI50 [2] | GI50 [3] | GI50 [4] | GI50 [5] | further results
1 | N.N.O=C([O-])C1(C(=O)[O-])CCC1.[Pt+2] [Carboplatin, carboplatin, reference compound] | 4.9 µM | 20 µM | 23 µM | 3.6 µM | 33.5 µM | patients developing peripheral neurotoxicity ([6]; patients receiving the drug): 4-6%
2 | N.N.[Cl][Pt][Cl] [Cisplatin, cisplatin, reference compound] | 0.5 µM | 2 µM | 2.8 µM | 0.4 µM | 3.6 µM | patients with tinnitus and hearing loss ([6]; patients treated with the drug): up to 31%
3 | BHALys[Lys]32[α-Succ-Gly-Gly-Gly-amino malonic acid-N,O—Pt-1R,2R-(DACH)]32[ε-PEG1100]32 [Compound 4] | 6.4 µM | 9.5 µM | 13 µM | 7.4 µM | 6.7 µM | –
4 | BHALys[Lys]32[α-Succ-Gly-Gly-Gly-amino malonic acid-O,N—Pt-diammine]32[ε-PEG2200]32 [Compound 3] | 69 µM | > 300 µM | > 300 µM | – | > 300 µM | –
5 | BHALys[Lys]32[α-Succ-Gly-Gly-Gly-amino malonic acid-O,O′—Pt-diammine]32[ε-PEG2200]32 [Compound 2] | 41 µM | 200 µM | 170 µM | > 30 µM | > 300 µM | –
6 | BHALys[Lys]32[α-Succ-Gly-Gly-Gly-amino malonic acid-Pt-1R,2R-(DACH)]32[ε-PEG2200]32 [Compound 1] | 4.5 µM | 9 µM | 7.5 µM | – | 3.5 µM | Mean Tumor Volume ([7]; Day 1): 100.47 mm^3; Mean Tumor Volume ([7]; Day 7): 184.55 mm^3; Mean Tumor Volume ([7]; Day 14): 283.02 mm^3; Mean Tumor Volume ([7]; Day 21): 316.90 mm^3
7 | BHALys[Lys]32[α-Succ-Gly-Leu-Phe-Gly-amino malonic acid-N,O—Pt-1R,2R-(DACH)]32[ε-PEG1100]32 [Compound 6] | 3.9 µM | 12 µM | 8.1 µM | 14.5 µM | 4.2 µM | –
8 | BHALys[Lys]32[α-Succ-Gly-Leu-Phe-Gly-amino malonic acid-N,O—Pt-diammine]32[ε-PEG1100]32 [Compound 7] | 36 µM | 150 µM | 220 µM | > 30 µM | 170 µM | –
9 | BHALys[Lys]32[α-Succ-Gly-Leu-Phe-Gly-amino malonic acid-Pt-1R,2R-(DACH)]32[ε-PEG2200]32 [Compound 5] | 2.5 µM | 3 µM | 3 µM | – | 1.5 µM | Mean Tumor Volume ([7]; Day 1): 100.96 mm^3; Mean Tumor Volume ([7]; Day 7): 196.01 mm^3; Mean Tumor Volume ([7]; Day 14): 303.00 mm^3; Mean Tumor Volume ([7]; Day 21): 363.01 mm^3
10 | BHALys[Lys]32[α-Succ-Pro-Val-Gly-Leu-Ile-Gly-amino malonic acid N,O—Pt-diamine]32[ε-PEG1100]32 [Compound 8] | 18 µM | 71 µM | 72 µM | 26.5 µM | 63 µM | –
11 | BHALys[Lys]32[α-diglycolic acid-5R-oxy-(1R,2R)-diaminocyclohexane-oxalato-Platinum (II)]32[ε-PEG2200]32 [Compound 13] | – | – | – | – | – | Tolerated Dose [8]: >35 mg/Kg Pt equivalents
12 | BHALys[Lys]32[α-diglycolic acid-5S-oxy-(1R,2R)-diaminocyclohexane-oxalato-Platinum (II)]32[ε-PEG2200]32 [Compound 14] | – | – | – | – | – | Tolerated Dose [8]: >35 mg/Kg Pt equivalents
13 | BHALys[Lys]32[α-thiodiglycolic acid-4-oxy-1,1-cyclohexane dicarboxylic acid —Pt-1R,2R-(DACH)]32[ε-PEG2200]32 [Compound 12] | 6 µM | 8.5 µM | 5 µM | – | 2.5 µM | Tolerated Dose [8]: >60 mg/Kg Pt equivalents
14 | oxaliplatin [reference compound] | 0.2 µM | 0.9 µM | 0.5 µM | 1 µM | 0.2 µM | Mean lymphocytes counts (baseline corrected) (SEM) ([9]; Day 1 (baseline)): 1.000 (0.125); Mean lymphocytes counts (baseline corrected) (SEM) ([9]; Day 7): 0.240 (0.130); Mean lymphocytes counts (baseline corrected) (SEM) ([9]; Day 14): 0.302 (0.066); Mean lymphocytes counts (baseline corrected) (SEM) ([9]; Day 26): 0.380 (0.154); Mean Tumor Volume ([7]; Day 1): 100.56 mm^3; Mean Tumor Volume ([7]; Day 7): 203.06 mm^3; Mean Tumor Volume ([7]; Day 14): 340.50 mm^3; Mean Tumor Volume ([7]; Day 21): 501.57 mm^3
